Results from patent US11541028B2, “Peptide pharmaceuticals for treatment of NASH and other disorders” (Mederis Diabetes LLC, priority 2018, dated 2023).

Columns and labels:
[1] = biological target: T1, human GLP-1 receptor (Homo sapiens, UniProt P43220); assay: DiscoveRx LeadHunter cellular assay, cAMP stimulation, GLP-1 receptor in CHO cells; type: cell-based; conditions: human GLP-1 receptor in CHO cells (DiscoveRx); read-out: EC50 cAMP GLP-1 R
T1 construct: host or cells: CHO cells
Experimental: (§1) A further series of cellular assays was carried out with standard cellular assays (DiscoveRx, LeadHunter assays) using readout of cAMP stimulation or arrestin activation. Compounds were weighed precisely in an amount of about 1 mg and shipped to DiscoveRx for dilution and assay.

[2] = tested on: db/db mice; assay: Glucose-lowering activity in db/db mice; type: in vivo
Experimental: The 60 female db/db B6BKS (D) Leprdb/J (strain 000697) mice for this study were about 8-9 weeks old at arrival (Jackson Laboratory, Bar Harbor, Me.). […] One group of 8 female mice served as the vehicle control and received the vehicle, 0.2% BSA in saline, pH 7.4. One additional group of 8 female mice received the positive-control compound, liraglutide, at a dose level of 50 nmoles/kg. The test compounds, vehicle and positive-control compound were subcutaneously injected at a dose volume of 6 mL/kg on day 1 at about 0, 7 and 24 hours.
Clinical observations were conducted at receipt, prior to randomization, and daily from days 1 to 5. Body weights were measured and recorded at receipt, prior to randomization, and daily from days 1 to 5. Food consumption was measured and recorded daily from days 1 to 5. Blood samples for glucose analysis were collected pre-study (day −3) and at 0, 1, 2, 4, 8, 10, 24, 48, 72 and 96 hours following the first dose on day 1. At study termination all animals were euthanized, and the carcasses were discarded without further evaluation.

[3] = biological target: T2, human glucagon receptor (Homo sapiens, UniProt P47871); assay: DiscoveRx LeadHunter cellular assay, cAMP stimulation, glucagon receptor in CHO cells; type: cell-based
T2 construct: host or cells: CHO cells
Experimental: as §1

[4] = db/db mice, high-dose (300 nmoles/kg) sc at 0, 7 and 24 hours, days 2 and 3

T1 sequence (P43220 24-463): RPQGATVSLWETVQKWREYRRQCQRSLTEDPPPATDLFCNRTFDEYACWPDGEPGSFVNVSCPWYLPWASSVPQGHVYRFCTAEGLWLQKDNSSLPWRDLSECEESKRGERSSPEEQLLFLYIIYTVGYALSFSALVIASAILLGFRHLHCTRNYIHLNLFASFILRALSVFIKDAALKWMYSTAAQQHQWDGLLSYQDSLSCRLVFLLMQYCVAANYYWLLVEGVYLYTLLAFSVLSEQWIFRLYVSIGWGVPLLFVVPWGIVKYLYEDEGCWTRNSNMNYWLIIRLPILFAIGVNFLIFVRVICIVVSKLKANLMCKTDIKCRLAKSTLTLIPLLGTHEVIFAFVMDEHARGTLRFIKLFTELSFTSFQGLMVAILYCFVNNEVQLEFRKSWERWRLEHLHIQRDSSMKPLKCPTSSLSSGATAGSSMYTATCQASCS
T2 sequence (P47871 26-477): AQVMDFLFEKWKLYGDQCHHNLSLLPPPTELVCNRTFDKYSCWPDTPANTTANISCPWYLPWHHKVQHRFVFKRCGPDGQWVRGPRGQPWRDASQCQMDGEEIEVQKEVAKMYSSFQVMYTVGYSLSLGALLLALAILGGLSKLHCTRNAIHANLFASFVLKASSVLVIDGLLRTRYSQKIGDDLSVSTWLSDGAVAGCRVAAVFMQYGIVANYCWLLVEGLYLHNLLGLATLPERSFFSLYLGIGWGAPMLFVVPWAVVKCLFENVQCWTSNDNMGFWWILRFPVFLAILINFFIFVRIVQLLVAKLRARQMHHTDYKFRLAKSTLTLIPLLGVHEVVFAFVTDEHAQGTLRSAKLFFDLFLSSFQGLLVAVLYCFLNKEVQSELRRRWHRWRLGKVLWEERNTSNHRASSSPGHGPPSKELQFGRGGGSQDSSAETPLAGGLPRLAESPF

In the case of `CCCCCCCCCCCCCCCCCCO[C@@H]1O[C@H](CO[C@H]2O[C@H](C(=O)NCCCC[C@H](NC(=O)[C@@H](NC(=O)[C@H](Cc3ccccc3)NC(=O)[C@H](CCC(=O)O)NC(=O)[C@@H]3CCCCNC(=O)CC[C@H](NC(=O)[C@H](CC(=O)O)NC(=O)[C@H](CC(C)C)NC(=O)[C@H](Cc4ccc(O)cc4)NC(=O)[C@H](CCCCN)NC(=O)[C@H](CO)NC(=O)[C@H](Cc4ccc(O)cc4)NC(=O)[C@H](CC(=O)O)NC(=O)[C@H](CO)NC(=O)[C@@H](NC(=O)[C@H](Cc4ccccc4)NC(=O)[C@@H](NC(=O)CNC(=O)[C@H](CCC(N)=O)NC(=O)C(C)(C)NC(=O)[C@@H](N)Cc4c[nH]cn4)[C@@H](C)O)[C@@H](C)O)C(=O)N[C@@H](CCC(N)=O)C(=O)N[C@@H](C)C(=O)N[C@@H](C)C(=O)N3)[C@@H](C)CC)C(=O)N[C@@H](Cc3c[nH]c4ccccc34)C(=O)N[C@@H](CC(C)C)C(=O)N[C@@H](CC(C)C)C(=O)N[C@@H](CCC(N)=O)C(=O)N[C@H](C(N)=O)[C@@H](C)O)[C@H](O)[C@H](O)[C@H]2O)[C@@H](O)[C@H](O)[C@H]1O` [EU-A1026], the EC50 [1] is reported as 0.034 nM, the “body weight changes versus vehicle” value [2, 4] is reported as “Significant body weight changes versus vehicle” and the “food consumption versus liraglutide” value ([2]; db/db mice, high-dose (300 nmoles/kg), day 2) is reported as “significantly different from liraglutide”. The “body weight changes versus vehicle” value ([2]; db/db mice, low-dose (100 nmoles/kg) sc at 0, 7 and 24 hours, days 3 and 4) was “Significant body weight changes versus vehicle”, the “food consumption versus liraglutide” value ([2]; db/db mice, low-dose (100 nmoles/kg), day 2) was “significantly different from liraglutide” and the “db/db Mice-Mean Blood Glucose (mg/dL) 0 hr” value ([2]; dose 300 nmole/kg sc) was 531 mg/dL. For the same molecule, the “db/db Mice-Mean Blood Glucose (mg/dL) 10 hr” value ([2]; dose 300 nmole/kg sc) was 399 mg/dL, the “db/db Mice-Mean Blood Glucose (mg/dL) 24 hr” value ([2]; dose 300 nmole/kg sc) was 438 mg/dL and the “db/db Mice-Mean Blood Glucose (mg/dL) 48 hr” value ([2]; dose 300 nmole/kg sc) was 505 mg/dL. The EC50 [3] was 0.486 nM.
`CCCCCCCCCCCCO[C@@H]1O[C@H](CO[C@H]2O[C@H](C(=O)NCCCC[C@H](NC(=O)[C@@H](NC(=O)[C@H](Cc3ccccc3)NC(=O)[C@H](CCC(=O)O)NC(=O)[C@@H]3CCCCNC(=O)CC[C@H](NC(=O)[C@H](CC(=O)O)NC(=O)[C@H](CC(C)C)NC(=O)[C@H](Cc4ccc(O)cc4)NC(=O)[C@H](CCCCN)NC(=O)[C@H](CO)NC(=O)[C@H](Cc4ccc(O)cc4)NC(=O)[C@H](CC(=O)O)NC(=O)[C@H](CO)NC(=O)[C@@H](NC(=O)[C@H](Cc4ccccc4)NC(=O)[C@@H](NC(=O)CNC(=O)[C@H](CCC(N)=O)NC(=O)C(C)(C)NC(=O)[C@@H](N)Cc4c[nH]cn4)[C@@H](C)O)[C@@H](C)O)C(=O)N[C@@H](CCC(N)=O)C(=O)N[C@@H](C)C(=O)N[C@@H](C)C(=O)N3)[C@@H](C)CC)C(=O)N[C@@H](Cc3c[nH]c4ccccc34)C(=O)N[C@@H](CC(C)C)C(=O)N[C@@H](CC(C)C)C(=O)N[C@@H](CCC(N)=O)C(=O)N[C@H](C(N)=O)[C@@H](C)O)[C@H](O)[C@H](O)[C@H]2O)[C@@H](O)[C@H](O)[C@H]1O` [EU-A1023] was tested, and the “db/db Mice-Mean Blood Glucose (mg/dL) 0 hr” value ([2]; dose 50 nmole/kg sc) was 507 mg/dL, the “db/db Mice-Mean Blood Glucose (mg/dL) 10 hr” value ([2]; dose 50 nmole/kg sc) was 310 mg/dL and the “db/db Mice-Mean Blood Glucose (mg/dL) 24 hr” value ([2]; dose 50 nmole/kg sc) was 355 mg/dL. The “db/db Mice-Mean Blood Glucose (mg/dL) 48 hr” value ([2]; dose 50 nmole/kg sc) was 375 mg/dL, the “db/db Mice-Mean Blood Glucose (mg/dL) 0 hr” value ([2]; dose 250 nmole/kg sc) was 508 mg/dL and the “db/db Mice-Mean Blood Glucose (mg/dL) 10 hr” value ([2]; dose 250 nmole/kg sc) was 264 mg/dL. The “db/db Mice-Mean Blood Glucose (mg/dL) 24 hr” value ([2]; dose 250 nmole/kg sc) was 194 mg/dL and the “db/db Mice-Mean Blood Glucose (mg/dL) 48 hr” value ([2]; dose 250 nmole/kg sc) was 375 mg/dL.
In the case of `CCCCCCCCCCCCCCO[C@@H]1O[C@H](C(=O)NCCCC[C@H](NC(=O)[C@@H](NC(=O)[C@H](Cc2ccccc2)NC(=O)[C@H](CCC(=O)O)NC(=O)[C@@H]2CCCCNC(=O)CC[C@H](NC(=O)[C@H](CC(=O)O)NC(=O)[C@H](CC(C)C)NC(=O)[C@H](Cc3ccc(O)cc3)NC(=O)[C@H](CCCCN)NC(=O)[C@H](CO)NC(=O)[C@H](Cc3ccc(O)cc3)NC(=O)[C@H](CC(=O)O)NC(=O)[C@H](CO)NC(=O)[C@@H](NC(=O)[C@H](Cc3ccccc3)NC(=O)[C@@H](NC(=O)CNC(=O)[C@H](CCC(N)=O)NC(=O)C(C)(C)NC(=O)[C@@H](N)Cc3c[nH]cn3)[C@@H](C)O)[C@@H](C)O)C(=O)N[C@@H](CCC(N)=O)C(=O)N[C@@H](C)C(=O)N[C@@H](C)C(=O)N2)[C@@H](C)CC)C(=O)N[C@@H](Cc2c[nH]c3ccccc23)C(=O)N[C@@H](CC(C)C)C(=O)N[C@@H](CC(C)C)C(=O)N[C@@H](CCC(N)=O)C(=O)N[C@H](C(N)=O)[C@@H](C)O)[C@@H](O)[C@H](O)[C@H]1O` [EU-A994], the “body weight changes versus vehicle” value [2, 4] is reported as “Significant body weight changes versus vehicle”, the “glucose levels versus vehicle” value ([2]; db/db mice, high-dose (300 nmoles/kg), at 10 and 24 hr) is reported as “significantly different from vehicle” and the “food consumption versus liraglutide” value ([2]; db/db mice, high-dose (300 nmoles/kg), day 1) is reported as “significantly different from liraglutide”. The “db/db Mice-Mean Blood Glucose (mg/dL) 0 hr” value ([2]; dose 300 nmole/kg sc) was 554 mg/dL, the “db/db Mice-Mean Blood Glucose (mg/dL) 10 hr” value ([2]; dose 300 nmole/kg sc) was 242 mg/dL and the “db/db Mice-Mean Blood Glucose (mg/dL) 24 hr” value ([2]; dose 300 nmole/kg sc) was 209 mg/dL. The “db/db Mice-Mean Blood Glucose (mg/dL) 48 hr” value ([2]; dose 300 nmole/kg sc) was 385 mg/dL.
In the case of `CCCCCCCCCCCCO[C@@H]1O[C@H](C(=O)NCCCC[C@H](NC(=O)[C@@H](NC(=O)[C@H](Cc2ccccc2)NC(=O)[C@H](CCC(=O)O)NC(=O)[C@@H]2CCCCNC(=O)CC[C@H](NC(=O)[C@H](CC(=O)O)NC(=O)[C@H](CC(C)C)NC(=O)[C@H](Cc3ccc(O)cc3)NC(=O)[C@H](CCCCN)NC(=O)[C@H](CO)NC(=O)[C@H](Cc3ccc(O)cc3)NC(=O)[C@H](CC(=O)O)NC(=O)[C@H](CO)NC(=O)[C@@H](NC(=O)[C@H](Cc3ccccc3)NC(=O)[C@@H](NC(=O)CNC(=O)[C@H](CCC(N)=O)NC(=O)C(C)(C)NC(=O)[C@@H](N)Cc3c[nH]cn3)[C@@H](C)O)[C@@H](C)O)C(=O)N[C@@H](CCC(N)=O)C(=O)N[C@@H](C)C(=O)N[C@@H](C)C(=O)N2)[C@@H](C)CC)C(=O)N[C@@H](Cc2c[nH]c3ccccc23)C(=O)N[C@@H](CC(C)C)C(=O)N[C@@H](CC(C)C)C(=O)N[C@@H](CCC(N)=O)C(=O)N[C@H](C(N)=O)[C@@H](C)O)[C@@H](O)[C@H](O)[C@H]1O` [EU-A993], the “db/db Mice-Mean Blood Glucose (mg/dL) 0 hr” value ([2]; dose 250 nmole/kg sc) is reported as 503 mg/dL, the “db/db Mice-Mean Blood Glucose (mg/dL) 10 hr” value ([2]; dose 250 nmole/kg sc) is reported as 305 mg/dL and the “db/db Mice-Mean Blood Glucose (mg/dL) 24 hr” value ([2]; dose 250 nmole/kg sc) is reported as 324 mg/dL. For the same molecule, the “db/db Mice-Mean Blood Glucose (mg/dL) 48 hr” value ([2]; dose 250 nmole/kg sc) was 426 mg/dL.
